Here are results for 26 compounds from US20230080054A1 (ILDONG PHARMACEUTICAL CO., LTD., priority 2021, published 2023).

Assay [1] deals with T1, human ANO6 (Homo sapiens, UniProt Q4KMQ2).
T1 construct: expressed in transfected cells
T1 sequence (Q4KMQ2 1-931 isoform Q4KMQ2-2): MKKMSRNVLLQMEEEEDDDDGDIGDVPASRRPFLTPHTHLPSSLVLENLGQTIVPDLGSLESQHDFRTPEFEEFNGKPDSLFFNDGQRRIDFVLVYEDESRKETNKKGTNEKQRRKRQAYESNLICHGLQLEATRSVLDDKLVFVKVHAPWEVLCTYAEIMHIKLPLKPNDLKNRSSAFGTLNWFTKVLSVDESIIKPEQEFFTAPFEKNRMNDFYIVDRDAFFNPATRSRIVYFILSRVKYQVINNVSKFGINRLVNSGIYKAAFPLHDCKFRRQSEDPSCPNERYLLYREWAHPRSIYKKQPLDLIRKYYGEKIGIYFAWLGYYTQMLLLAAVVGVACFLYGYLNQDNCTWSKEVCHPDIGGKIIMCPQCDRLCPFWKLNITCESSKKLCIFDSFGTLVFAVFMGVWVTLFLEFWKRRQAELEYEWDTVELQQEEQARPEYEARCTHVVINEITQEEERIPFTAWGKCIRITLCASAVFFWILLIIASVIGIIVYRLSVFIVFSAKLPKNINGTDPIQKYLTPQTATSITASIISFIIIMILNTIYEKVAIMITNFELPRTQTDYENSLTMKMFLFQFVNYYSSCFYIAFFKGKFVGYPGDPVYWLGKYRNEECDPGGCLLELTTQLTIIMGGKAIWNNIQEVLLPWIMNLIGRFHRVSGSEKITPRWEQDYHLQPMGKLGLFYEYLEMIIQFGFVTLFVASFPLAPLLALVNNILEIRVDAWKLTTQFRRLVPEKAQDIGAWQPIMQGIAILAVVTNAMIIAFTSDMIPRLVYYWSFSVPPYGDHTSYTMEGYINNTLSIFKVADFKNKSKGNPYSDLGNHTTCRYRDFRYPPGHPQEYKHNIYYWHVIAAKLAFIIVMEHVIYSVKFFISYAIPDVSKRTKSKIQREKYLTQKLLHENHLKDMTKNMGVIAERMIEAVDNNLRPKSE
Nature of the assay: YFP quenching assay (ANO6 ion channel activity). It is filed as cell-based. As to conditions: 10 μM ionomycin; for inhibition at 1 µM: test compound 1 μM, read-out: Inhibition Level 1 μM; for inhibition at 30 µM: test compound 30 μM, read-out: Inhibition Level 30 μM. In outline: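 FRT cells stably expressing human ANO6 and YFP-H148Q/I152L/F46L, preincubated 10 min at 40° C with compounds (1% DMSO) in PBS. Quench read every 0.4 s after injecting 140 mM SCN- with 10 μM ionomycin; % inhibition from the 3.6–7.6 s fluorescence difference, normalised to no-ionomycin (100%) and ionomycin-only (0%) wells, duplicate or triplicate.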

The target of assay [2] is T1, human ANO6. As to the kind of experiment: LACT C2 assay (phosphatidylserine scramblase function assay). It is filed as cell-based. The following applies: FRT cells expressing human ANO6, 10 μM ionomycin; for inhibition at 0.1 µM: test compound 100 nM, read-out: Inhibition Level 100 nM; for inhibition at 1 µM: test compound 1 μM, read-out: Inhibition Level 1 μM. In outline: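 FRT cells stably expressing human ANO6 were pretreated with compound (1% DMSO) for 10 min, then stimulated with 10 μM ionomycin for 10 min. Surface phosphatidylserine was stained with 500 nM Lact-C2-GFP and quantified by imaging. Inhibition was scaled between unstimulated (100%) and ionomycin-only (0%) controls, averaged over triplicates.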

One may read the inhibition as the drop in the measured response relative to a control, in per cent. On to `CCN(CC)c1ccc(CNC(=O)c2cccc(Nc3ccc(-c4ccccc4)nn3)c2)cc1` [Compound A55], for which, in assay [1], the inhibition at 1 µM was at least 60% and the inhibition at 30 µM is at least 60%. Moreover, in assay [2], the inhibition at 0.1 µM is below 30% and the inhibition at 1 µM is below 30%.
On to `Cc1ccc(CNC(=O)c2cccc(Nc3ccc(-c4ccc(Cl)cc4)nn3)c2)o1` [Compound 75, 3-{[6-(4-chlorophenyl)pyridazin-3-yl]amino}-N-[(5-methylfuran-2-yl)methyl]benzamide], for which the inhibition at 1 µM in assay [1] and in assay [2] was 30 to 60% throughout.
`O=C(Nc1ccccc1)c1cccc(Nc2ccc(-c3ccccc3)nn2)c1` [Compound A89]: the inhibition at 1 µM in assay [1] is at least 60%. Besides, in assay [2], the inhibition at 0.1 µM lay within 30 to 60% and the inhibition at 1 µM is at least 60%.
Turning to `O=C(NCCc1cc(F)cc(F)c1)c1cccc(Nc2ncc(-c3ccccc3)cn2)c1` [Compound 82, N-[2-(3,5-difluorophenyl)ethyl]-3-[(5-phenylpyrimidin-2-yl)amino]benzamide], the values for the inhibition at 1 µM in assay [1] and in assay [2] were 30 to 60% and below 30%, respectively.
In the case of `O=C(NC1CCCC1)c1cccc(Nc2ccc(-c3ccc(F)cc3)nn2)c1` [Compound A14], in assay [1], the inhibition at 1 µM was at least 60% and the inhibition at 30 µM is at least 60%. Besides, in assay [2], the inhibition at 0.1 µM is below 30% and the inhibition at 1 µM is below 30%.
On to `O=C(NCc1ccc(Cl)cc1)c1cccc(Nc2ccc(-c3ccccc3)nn2)c1` [Compound A49], for which, in assay [1], the inhibition at 1 µM was in the range of 30 to 60% and the inhibition at 30 µM was at least 60%. Besides, in assay [2], the inhibition at 0.1 µM was below 30% and the inhibition at 1 µM fell in the range of 30 to 60%.
With `CCOCCCNC(=O)c1cccc(Nc2ccc(-c3ccccc3)nn2)c1` [Compound A67], in assay [1], the inhibition at 1 µM is at least 60% and the inhibition at 30 µM is at least 60%. Moreover, in assay [2], the inhibition at 0.1 µM is below 30% and the inhibition at 1 µM was below 30%.
Take `O=C(NC1CCCC1)c1cccc(Nc2ccc(-c3ccccc3)nn2)c1` [Compound A63]: in assay [1], the inhibition at 1 µM was at least 60% and the inhibition at 30 µM is at least 60%. Moreover, in assay [2], the inhibition at 0.1 µM is below 30% and the inhibition at 1 µM was below 30%.
For the compound `O=C(NCCc1ccccc1)c1cccc(Nc2ccc(-c3ccccc3)cc2)c1` [Compound 50, 3-({[1,1′-biphenyl]-4-yl}amino)-N-(2-phenylethyl)benzamide], the inhibition at 1 µM is at least 60% in assay [1] and 30 to 60% in assay [2].
For `O=C(NCCCc1ccccc1)c1cccc(Nc2cnc(-c3ccccc3)cn2)c1` [Compound 54, N-(3-phenylpropyl)-3-[(5-phenylpyrazin-2-yl)amino]benzamide], the inhibition at 1 µM was at least 60% in assay [1] and below 30% in assay [2].
The matching figures for `O=C(NCCc1ccccc1)c1cccc(Nc2ccc(-c3cccc(F)c3)cn2)c1` [Compound 121, 3-{[5-(3-fluorophenyl)pyridin-2-yl]amino}-N-(2-phenylethyl)benzamide]: at least 60% and 30 to 60%.
Turning to `COc1ccc(CNC(=O)c2cccc(Nc3ccc(-c4ccccc4)nn3)c2)cc1` [Compound A77], in assay [1], the inhibition at 1 µM was at least 60% and the inhibition at 30 µM is at least 60%. In addition, in assay [2], the inhibition at 0.1 µM was below 30% and the inhibition at 1 µM was below 30%.
Consider `COc1cccc(CCNC(=O)c2cccc(Nc3ncc(-c4cccc(F)c4)cn3)c2)c1` [Compound 78, 3-{[5-(3-fluorophenyl)pyrimidin-2-yl]amino}-N-[2-(3-methoxyphenyl)ethyl]benzamide], for which the inhibition at 1 µM in assay [1] was 30 to 60%. Besides, in assay [2], the inhibition at 0.1 µM lay within 30 to 60% and the inhibition at 1 µM was at least 60%.
With `CCC(C)NC(=O)c1cccc(Nc2ccc(-c3ccccc3)nn2)c1` (centres unmarked) [Compound A78], in assay [1], the inhibition at 1 µM is at least 60% and the inhibition at 30 µM was at least 60%. Moreover, in assay [2], the inhibition at 0.1 µM is below 30% and the inhibition at 1 µM was below 30%.
With `Cc1cccc(-c2ccc(Nc3cccc(C(=O)NCC(C)C)c3)nn2)c1` [Compound A32], in assay [1], the inhibition at 1 µM was at least 60% and the inhibition at 30 µM was at least 60%. In addition, in assay [2], the inhibition at 0.1 µM is below 30% and the inhibition at 1 µM is below 30%.
On to `O=C(NCCN1CC2CCC1C2)c1cccc(Nc2ncc(-c3ccccc3)cn2)c1` (centres unmarked) [Compound 105, N-(2-{2-azabicyclo[2.2.1]heptan-2-yl}ethyl)-3-[(5-phenylpyrimidin-2-yl)amino]benzamide], for which the inhibition at 1 µM in assay [1] and in assay [2] was below 30% each time. In addition, the inhibition at 0.1 µM in assay [2] is below 30%.
As to `CSc1ccc(CNC(=O)c2cccc(Nc3ccc(-c4ccc(F)cc4)nn3)c2)cc1` [Compound A27], in assay [1], the inhibition at 1 µM was 30 to 60% and the inhibition at 30 µM was at least 60%. Further, in assay [2], the inhibition at 0.1 µM was below 30% and the inhibition at 1 µM is below 30%.
For `CNC(=O)c1cccc(Nc2ccc(-c3ccccc3)nn2)c1` [Compound 41, N-methyl-3-[(6-phenylpyridazin-3-yl)amino]benzamide], in assay [1], the inhibition at 1 µM fell in the range of 30 to 60% and the inhibition at 30 µM was at least 60%. Also, the inhibition at 1 µM in assay [2] was below 30%.
Take `O=C(NC1CCCCC1)c1cccc(Nc2ccc(-c3ccc(F)cc3)nn2)c1` [Compound A2]: in assay [1], the inhibition at 1 µM is at least 60% and the inhibition at 30 µM was at least 60%. In addition, in assay [2], the inhibition at 0.1 µM was below 30% and the inhibition at 1 µM was below 30%.
Take `O=C(NCCC1=CCCCC1)c1cccc(Nc2ccc(-c3ccccc3)nn2)c1` [Compound A40]: in assay [1], the inhibition at 1 µM is at least 60% and the inhibition at 30 µM was at least 60%. Besides, in assay [2], the inhibition at 0.1 µM was below 30% and the inhibition at 1 µM is at least 60%.
Consider `CC(C)(C)CNC(=O)c1cccc(Nc2ccc(-c3ccccc3)nn2)c1` [Compound 24, N-(2,2-dimethylpropyl)-3-[(6-phenylpyridazin-3-yl)amino]benzamide], for which, in assay [1], the inhibition at 1 µM lay in the range of 30 to 60% and the inhibition at 30 µM was at least 60%. In addition, the inhibition at 1 µM in assay [2] was below 30%.
Take `Cc1cccc(CNC(=O)c2cccc(Nc3ccc(-c4ccccc4)nn3)c2)c1` [Compound A50]: in assay [1], the inhibition at 1 µM was at least 60% and the inhibition at 30 µM was at least 60%. Further, in assay [2], the inhibition at 0.1 µM is below 30% and the inhibition at 1 µM lay within 30 to 60%.
Regarding `CCCNC(=O)c1cccc(Nc2ccc(-c3ccccc3)nn2)c1` [Compound A68], in assay [1], the inhibition at 1 µM is at least 60% and the inhibition at 30 µM is at least 60%. Further, in assay [2], the inhibition at 0.1 µM is below 30% and the inhibition at 1 µM was below 30%.
Turning to `CCOc1ccc(NC(=O)c2cccc(Nc3ccc(-c4ccccc4)nn3)c2)cc1` [Compound A80], the inhibition at 1 µM in assay [1] and in assay [2] was at least 60% each time. In addition, the inhibition at 0.1 µM in assay [2] was below 30%.
Take `Cc1ccc(CNC(=O)c2cccc(Nc3ncc(-c4ccoc4C)cn3)c2)o1` [Compound 112, N-[(5-methylfuran-2-yl)methyl]-3-{[5-(2-methylfuran-3-yl)pyrimidin-2-yl]amino}benzamide]: the inhibition at 1 µM in assay [1] is at least 60%; in assay [2], 30 to 60%.
Turning to `CC(C)NC(=O)c1cccc(Nc2ccc(-c3ccccc3)nn2)c1` [Compound A12], in assay [1], the inhibition at 1 µM was at least 60% and the inhibition at 30 µM was at least 60%. For the same compound, in assay [2], the inhibition at 0.1 µM is below 30% and the inhibition at 1 µM is below 30%.
